O=C(O)CCCC(=O)O
Settings	solubility (mole fraction)
in cyclohexanone, 295.35 K	0.17
in cyclohexanone, 299.35 K	0.184
in cyclohexanone, 303.65 K	0.198
in cyclohexanone, 307.75 K	0.228
in cyclohexanone, 311.85 K	0.251
in methanol, 287.05 K	0.204
in methanol, 295.55 K	0.239
in methanol, 299.15 K	0.256
in methanol, 302.85 K	0.274
in methanol, 306.95 K	0.294
in methanol, 310.15 K	0.316
in methanol, 313.45 K	0.34
in methanol, 317.15 K	0.37
in methanol, 321.15 K	0.403
in methanol, 324.85 K	0.436
in methanol, 328.95 K	0.472

— BigSolDB 2.1
